This note sets out measurements from PubChem BioAssay (NCI).

Several values for one entry are separate records, joined by “and”; a condition that tells them apart may be missing. Equal entries are not always repeated.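 Test compounds were applied to cells in 96-well plates for 48 hours at 5 doses. GI50 is the concentration that inhibits growth by half. TGI: total growth inhibition.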 Bounds are passed on as bounds.

Holding throughout (assay): NCI tumour cell line growth inhibition, 48 h
The test system of assay [1] is A498 renal.
In assay [2] the test system is ACHN renal.
For assay [3], the system named is COLO 205 colon.
In assay [4] the test system is HCC-2998 colon.
Assay [5] concerns MOLT-4 leukemia.
The test system of assay [6] is NCI-H522 lung.
The test system of assay [7] is RPMI-8226 leukemia.
Assay [8] deals with RXF 393 renal.
The test system of assay [9] is SNB-19 CNS.
Assay [10] deals with UACC-257 melanoma.
Assay [11] relates to SK-MEL-28 melanoma.

On to `COc1cc([C@@H]2c3cc4c(c(O)c3C[C@H]3COC(=O)[C@@H]32)OCO4)cc(OC)c1OC`, for which the TGI in assay [1] was over 100 µM; in assay [2], 121 µM and > 100 µM; in assay [7], 27.4 µM and > 241 µM. Besides, the GI50 in [2] was 1.43 µM; in assay [3], 0.239 µM; in assay [4], < 0.0241 µM and 0.241 µM; in [5], 0.539 µM; in assay [6], 0.393 µM; in assay [8] it was 0.281 µM. Moreover, the figures for the GI50 in assay [9] and in assay [10] were 0.114 µM and over 100 µM, respectively.

Turning to `Cc1nc2c(c(=O)[nH]1)S/C(=C(/C#N)c1nc3ccccc3[nH]1)N2c1ccccc1`, the TGI in [1], in [2], in [3], in assay [4], in [5] and in assay [6] was over 100 µM throughout. Besides, the TGI in assay [7], in assay [8], in assay [11], in assay [9] and in [10] was over 100 µM in each case.

Take `COc1ccc2c(c1O)-c1cc(O)cc3c1[C@@H](C2)N(C)CC3`: the TGI was 125 µM in assay [1]; 106 µM in [3]; 139 µM in assay [4]; 211 µM in [5]; 255 µM in assay [6]; 286 µM in [7]. In addition, the TGI in [8] was determined as 119 µM; in assay [11], 157 µM; in [9], 378 µM; in assay [10], 138 µM.

Regarding `O=C1C(Cl)N(c2cccc(Cl)c2)C1c1c[nH]c2ccccc12` (stereo not given), the TGI in [3], in assay [5], in assay [6], in assay [7], in [8] and in assay [11] was over 100 µM each time. Also, the TGI in assay [9] and in assay [10] was over 100 µM in each case.

`Nc1ccccc1Nc1ccccc1C(=O)[O-].Nc1ccccc1Nc1ccccc1C(=O)[O-].[Zn+2]`: the TGI in assay [1] was over 100 µM; in assay [2] it was over 100 µM; in [3] it was over 100 µM; in assay [4], over 100 µM; in assay [5] it was over 100 µM; in assay [6], 44.4 µM. For the same compound, the TGI in assay [7], in assay [11], in [9] and in assay [10] was over 100 µM in each case.

Consider `Cc1cc(O)c2c(c1O)C(=O)c1cccc(O)c1C2=O`, for which the TGI in assay [2], in assay [4], in assay [6], in assay [7], in [8] and in [11] was over 100 µM throughout. The TGI in [9] and in [10] was over 100 µM throughout.

In the case of `C(/C=C/c1ccccc1)=Nc1ccc2c(c1)Cc1ccccc1-2`, the TGI in assay [1] was over 100 µM; in assay [2] it was over 100 µM; in [5] it was 95 µM; in assay [6] it was over 100 µM; in assay [8] it was over 100 µM; in assay [11] it was over 100 µM. Also, the TGI in [9] is over 100 µM.

Regarding `COc1cc(C2S/C(=C/c3ccccc3)C(=O)N2c2ccc(NC(C)=O)cc2)cc(OC)c1OC` (stereo not given), the TGI in assay [1] worked out at 67.3 µM; in assay [2], 77.8 µM; in assay [3] it was 30.3 µM; in [4], 52.3 µM; in assay [5], 75.6 µM; in assay [6], 26.6 µM. The TGI was 63 µM in assay [8], over 100 µM in assay [11], over 100 µM in assay [9] and over 100 µM in [10].

As to `NC(CSCc1ccc(I)cc1)C(=O)O` (stereo not given), the TGI in assay [1], in assay [2], in [3], in assay [4], in [5] and in [6] was over 100 µM throughout. Also, the TGI in assay [7], in assay [8], in assay [11], in assay [9] and in assay [10] was over 100 µM throughout.

`CC[C@@H]1ON(C)[C@H]2CN(C)C(=O)[C@@H]12`: the TGI in [2], in assay [3], in assay [4], in assay [5], in assay [6] and in assay [7] was over 100 µM in each case. The TGI in [11], in [9] and in assay [10] was over 100 µM in each case.

For `Cc1c(C)c(C)c(CC2(C)CSC2)c(CC2(C)CSC2)c1C`, the TGI in assay [1], in assay [2], in assay [3], in [5], in assay [6] and in assay [7] was over 100 µM each time. Besides, the TGI in assay [8], in [11], in assay [9] and in [10] was over 100 µM each time.

Turning to `COc1ccc(-c2csc(=Nc3ccccc3)n2CCCN(C)C)cc1`, the TGI was 49.2 µM in [1]; 48.6 µM in assay [2]; 35.3 µM in [4]; 48.9 µM in assay [5]; 60.8 µM in assay [7]; 26.6 µM in [8]. Besides, the TGI in [11] amounted to 58.1 µM; in assay [9], 48.1 µM; in [10], 37.5 µM.

Regarding `NC(=S)N/N=C/c1nccc2ccccc12`, the TGI in assay [1] is over 100 µM; in [2] it was 1.01 µM; in assay [3], over 100 µM; in assay [4], over 100 µM; in assay [5] it was over 100 µM; in [6], 5.24 µM. Besides, the TGI was over 100 µM in assay [7], 0.902 µM in assay [8], over 100 µM in [11] and 32.7 µM in [9].

In the case of `CCN1CCCC(C#N)(c2ccccc2)CC1` (stereo not given), the TGI in assay [1], in [2], in [3], in assay [4], in [5] and in assay [7] was over 100 µM each time. The TGI in [8], in [11], in assay [9] and in [10] was over 100 µM throughout.

For `CN(C)CCCC1c2ccccc2Oc2ccc(C(F)(F)F)cc21` (stereo not given), the TGI turned out to be 25.9 µM in assay [1]; 30.4 µM in assay [2]; 17.7 µM in assay [3]; 4.97 µM in assay [4]; 22.7 µM in assay [5]; 29.4 µM in assay [6]. Also, the TGI in assay [7] stood at 25.3 µM; in assay [8], 17.4 µM; in assay [11] it was 15.7 µM; in assay [9], 31.3 µM; in assay [10] it was 26.5 µM.
